Among the data in PubChem BioAssay (NCI) are TGI and GI50 values, retold here.

Common to all, as to experiment: inhibition of tumour cell growth, NCI panel, 48 h
For assay [1], the system named is 786-0 renal.
For assay [2], the system named is EKVX NSCLC.
The subject of assay [3] is HS 578T breast.
For assay [4], the system named is HT29 colon.
The test system of assay [5] is M14 melanoma.
Assay [6] concerns MALME-3M melanoma.
For assay [7], the system named is NCI-H23 lung.
Assay [8] concerns SF-268 CNS.
The test system of assay [9] is SN12C renal.
The subject of assay [10] is T-47D breast.

Several values for one entry are separate records, joined by “and”; a condition that tells them apart may be missing. Equal entries are not always repeated.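 96-well plates; 48 h exposure; 5 concentrations. Endpoints by linear interpolation between flanking doses. Not reached: highest tested concentration assigned. GI50: concentration for 50% inhibition of growth. TGI: total growth inhibition.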

For the molecule `COc1ccccc1/C=C1\CCC(CN(C)C)C1=O` (stereo unspecified), the TGI was 5.08 µM in [1]; 38.9 µM in [2]; more than 45.8 µM in [3]; 16.1 µM in assay [4]; 11.1 µM in [5]; 16.2 µM in assay [6]. In addition, the TGI amounted to 25.1 µM in assay [7], 29.7 µM in assay [8], 13.3 µM in assay [9] and 28.8 µM in [10].

As for `CC(C)[C@@H]1NC(=O)[C@]2(C)CSC(=N2)c2csc(n2)CNC(=O)C[C@@H](/C=C/CCS)OC1=O`, the GI50 in assay [1] was 0.454 µM; in assay [2], 0.198 µM; in assay [3], 0.0471 µM; in assay [4] it was 0.183 µM; in assay [5], 0.0835 µM; in assay [6] it was 0.0295 µM. The GI50 was 0.219 µM in [7], 0.181 µM in assay [8], 0.403 µM in [9] and 0.491 µM in assay [10]. Also, the TGI in assay [1] is more than 100 µM; in assay [2], more than 100 µM; in assay [4], more than 100 µM; in assay [5], 52.7 µM; in assay [6], more than 100 µM; in [7] it was more than 30.6 µM. Besides, the TGI in assay [8] is more than 100 µM; in [9], more than 100 µM; in assay [10], 7.5 µM.

For the molecule `S=C(Nc1ccc(-c2nc3ccccc3s2)cc1)Nc1ccccn1`, the GI50 in assay [1] was 24.7 µM; in [2], 12.2 µM; in assay [3], 21.5 µM; in assay [4], 28.3 µM; in assay [5], 25.2 µM; in assay [6], 28.6 µM. The GI50 in [7] was 25.7 µM; in assay [8] it was 46.6 µM; in [9], 22.9 µM; in [10], 23.6 µM. Further, the TGI in assay [1] was 70.4 µM; in assay [2] it was more than 50.1 µM; in assay [3] it was 59.2 µM; in [4], more than 80.4 µM; in assay [5], 60.9 µM; in assay [6], 73.9 µM. In addition, the TGI in assay [7] was 70.6 µM; in assay [8], more than 100 µM; in assay [9], 63.6 µM; in assay [10], more than 95.5 µM.

For the molecule `COC(=O)C1=C2C3=C(C(=O)c4ccccc4C3=O)N(Cc3ccccc3)C2(OC(C)=O)C=CC1=O` (stereo unspecified), the GI50 in [1] is 2.28 µM; in assay [2] it was 23.6 µM; in assay [3] it was 22 µM; in assay [4] it was 37 µM; in [5], 15.2 µM; in assay [6], 10.8 µM. Besides, the GI50 was 11.8 µM in [7], 2.86 µM in [8], 6.78 µM in assay [9] and 66.4 µM in [10]. For the same molecule, the TGI in assay [1] was 10.1 µM; in [2], 79.9 µM; in [3], 71.3 µM; in assay [4], more than 100 µM; in assay [5] it was 34 µM; in assay [6] it was 26.5 µM. In addition, the TGI is 76.6 µM in [7], 23.6 µM in [8], 30.2 µM in assay [9] and more than 100 µM in assay [10].

As for `O=C1OCC2=C1C(c1cccc([N+](=O)[O-])c1)c1cc3c(cc1N2CCO)CCC3` (stereo unspecified), the GI50 in [1] was 0.0822 µM; in [2] it was 0.28 µM; in [3], 0.18 µM; in [4], 0.176 µM; in [5], 0.112 µM; in assay [6] it was 0.504 µM. The GI50 in assay [7] was 0.335 µM; in assay [8], 0.295 µM; in assay [9], 0.339 µM; in [10], 0.355 µM. For the same molecule, the TGI in assay [1] is 16.8 µM; in [2] it was more than 50 µM; in assay [3], more than 50 µM; in [4] it was 21.6 µM; in [5], 17.2 µM; in [6], 35.1 µM. The TGI is more than 50 µM in assay [7], 22.9 µM in assay [8], more than 39.9 µM in assay [9] and more than 50 µM in assay [10].

For `NC(Cc1cc(Br)c(O)c(Br)c1)C(=O)O` (stereo unspecified), the TGI in assay [1], in [2], in assay [3], in assay [4], in assay [5] and in assay [6] was more than 100 µM throughout. Also, the TGI in [7], in [8], in [9] and in assay [10] was more than 100 µM each time.

As for `NC(=O)Cc1ccccc1Oc1nccc(-c2c(-c3ccc(F)cc3)ncn2C2CCNCC2)n1`, the GI50 was more than 25 µM in [1]; more than 25 µM in [2]; more than 9.24 µM in [3]; more than 25 µM in assay [4]; more than 25 µM in [5]; more than 25 µM in assay [6]. Also, the GI50 in assay [7], in [8], in assay [9] and in assay [10] was more than 25 µM throughout. The TGI in assay [1], in assay [2], in [3], in assay [4], in assay [5] and in assay [6] was more than 25 µM in each case. For the same molecule, the TGI in assay [7], in assay [8], in assay [9] and in assay [10] was more than 25 µM in each case.

Turning to `Cc1nc(NC(=O)COc2cccc(/C=C3\COc4ccccc4C3=O)c2)sc1C`, the GI50 in assay [1] is 1.73 µM; in [2], 1.24 µM; in assay [3] it was 2.72 µM; in assay [4], 1.89 µM; in [5] it was 1.83 µM; in assay [6], 1.79 µM. The GI50 in assay [7] was 1.92 µM; in assay [8] it was 1.85 µM; in assay [9], 2.01 µM; in assay [10] it was 2.9 µM. For the same molecule, the TGI in assay [1] was 3.22 µM; in [2] it was 3.12 µM; in assay [3], 8.6 µM; in assay [4], 4.14 µM; in assay [5], 3.75 µM; in [6], 4.11 µM. Besides, the TGI in [7] came out at 4.12 µM; in assay [8], 3.5 µM; in assay [9], 4.63 µM; in assay [10], 10.4 µM.

In the case of `O=C1C(CN(Cc2ccccc2)Cc2ccccc2)CCCC1CN(Cc1ccccc1)Cc1ccccc1` (stereo unspecified), the GI50 was 16.8 µM and 55.1 µM in assay [1]; 36.8 µM and > 100 µM in assay [2]; > 100 µM and 28.1 µM in assay [3]; 25.7 µM and 59.3 µM in assay [4]; 17.2 µM and 71.7 µM in assay [5]; 8.03 µM and 36.3 µM in [6]. Besides, the GI50 in assay [7] was 32.2 µM and > 100 µM; in assay [8], 33.3 µM and > 100 µM; in assay [9] it was 13.1 µM and > 79 µM. Also, the TGI in assay [1] was 32.9 µM and > 100 µM; in assay [2], 59.9 µM and > 100 µM; in assay [3], more than 100 µM; in assay [4] it was 47.1 µM and > 100 µM; in assay [5], 31.1 µM and > 100 µM; in [6], 14.3 µM and > 83 µM. The TGI is 50 µM and > 100 µM in [7]; 53 µM and > 100 µM in [8]; 25.8 µM and > 100 µM in [9]; more than 100 µM in assay [10].

`O=C1OCC2=C1C(c1ccccc1)c1cc3c(cc1N2CCO)CCC3` (stereo unspecified): the GI50 in assay [1] was 0.0988 µM; in assay [2] it was 1.16 µM; in assay [3], 0.0739 µM; in assay [4], 0.0878 µM; in assay [5] it was 0.0722 µM; in assay [6], 0.0609 µM. For the same molecule, the GI50 in assay [7] was 0.106 µM; in assay [8] it was 0.0833 µM; in assay [9], 0.172 µM; in assay [10] it was 0.0922 µM. In addition, the TGI in assay [1] was more than 14.5 µM; in [2], more than 25 µM; in assay [5], 0.351 µM; in assay [6], more than 25 µM; in assay [7], more than 9.91 µM; in assay [8], 1.51 µM. Also, the TGI in assay [9] and in assay [10] was more than 25 µM throughout.

As for `O=C(O[C@H]1CN[C@H](C#Cc2cc3ncnc(Nc4ccc(Cc5ccccc5)cc4)c3s2)C1)N1CCOCC1`, the GI50 in [1] is 7.3 µM; in assay [2], 1.94 µM; in assay [3], 3.06 µM; in assay [4] it was 4.71 µM; in assay [5] it was 6.08 µM; in [6], 4.71 µM. The GI50 was 6.35 µM in assay [7], 3.8 µM in assay [8], 4.08 µM in assay [9] and 1.86 µM in assay [10]. The TGI in [1] was more than 25 µM; in [2], more than 25 µM; in assay [3] it was more than 21.7 µM; in [4], 10.7 µM; in assay [5], 18.9 µM; in assay [6], more than 20.3 µM. Also, the TGI is 24.9 µM in assay [7], 10.6 µM in assay [8], more than 25 µM in assay [9] and more than 25 µM in assay [10].

For `C[C@H]1O[C@@H](O[C@H]2[C@@H](O)C[C@H](O[C@H]3[C@@H](O)C[C@H](O[C@H]4CC[C@]5(C)C6C[C@@H](O)[C@]7(C)[C@@H](C8=CC(=O)OC8)CC[C@]7(O)C6CC[C@@H]5C4)O[C@@H]3C)O[C@@H]2C)C[C@H](O)[C@@H]1O` (stereo partly specified), the GI50 in assay [1] was 0.06 µM; in assay [2] it was 0.0377 µM; in [3] it was 0.0311 µM; in [4], 0.0893 µM; in assay [5], 0.107 µM; in [6] it was 0.115 µM. Also, the GI50 in assay [7] was 0.0251 µM; in [8], 0.0253 µM; in assay [9] it was 0.0266 µM; in assay [10], 0.0833 µM. The TGI was 0.16 µM in [1]; 0.124 µM in [2]; 4.3 µM in [3]; 0.293 µM in assay [4]; 0.241 µM in assay [5]; 0.262 µM in [6]. The TGI was found to be 0.112 µM in assay [7], 0.083 µM in assay [8], 0.457 µM in assay [9] and 0.252 µM in assay [10].

In the case of `NC(=O)c1cccc(N)c1`, the GI50 in assay [1], in assay [2], in [3], in assay [4], in assay [5] and in [6] was more than 100 µM each time. For the same molecule, the GI50 in assay [7], in assay [8], in assay [9] and in assay [10] was more than 100 µM throughout. The TGI in assay [1], in assay [2], in [3], in assay [4], in assay [5] and in assay [6] was more than 100 µM each time. In addition, the TGI in [7], in [8], in assay [9] and in [10] was more than 100 µM each time.

Consider `COC(=O)c1c2c(c[n+]([O-])c1C)C(=O)C(NCc1ccccc1)=CC2=O`, for which the GI50 is 1.69 µM in [1]; 1.06 µM in [2]; 2.4 µM in assay [3]; 0.43 µM in [4]; 0.297 µM in assay [5]; 0.127 µM in [6]. The GI50 was 0.485 µM in [7], 0.998 µM in assay [8], 0.318 µM in assay [9] and 0.327 µM in assay [10]. For the same molecule, the TGI is 3.8 µM in assay [1]; 2.56 µM in assay [2]; 8.13 µM in assay [3]; more than 20.3 µM in assay [4]; 1.12 µM in assay [5]; 0.294 µM in [6]. In addition, the TGI was found to be 2.6 µM in assay [7], 3.94 µM in [8], 1.22 µM in assay [9] and 1.53 µM in [10].

As for `COc1cc2c3c(n(CCCN=[N+]=[N-])c(=O)c2cc1OC)-c1ccc(N)cc1C3=O`, the GI50 in [1] is 0.16 µM; in assay [2], 1.09 µM; in [3], 1.53 µM; in assay [4] it was 0.133 µM; in assay [5], 0.0591 µM; in assay [6], 0.804 µM. The GI50 was 0.17 µM in [7], 0.34 µM in [8], 0.282 µM in assay [9] and 0.0988 µM in [10]. Moreover, the TGI in assay [1] was 0.431 µM; in assay [2], 8.55 µM; in assay [3], more than 24.9 µM; in assay [4], 0.929 µM; in assay [5] it was 0.237 µM; in assay [6] it was 4.63 µM. Moreover, the TGI in assay [7] was 0.73 µM; in assay [8] it was more than 32.4 µM; in assay [9], more than 27.1 µM; in assay [10], 0.76 µM.
